Patent publication US20240246967A1, “AXL COMPOUNDS” (ARCUS BIOSCIENCES, INC., priority 2021, published 2024)

Assays:
[1] = target: T1, Axl (Homo sapiens, UniProt P30530); test: HTRF KinEASE-TK biochemical potency assay, AXL; design: purchased Invitrogen; settings: 5 nM AXL, 700 μM ATP, 800 nM TK Substrate-biotin
T1 sequence (P30530 26-894): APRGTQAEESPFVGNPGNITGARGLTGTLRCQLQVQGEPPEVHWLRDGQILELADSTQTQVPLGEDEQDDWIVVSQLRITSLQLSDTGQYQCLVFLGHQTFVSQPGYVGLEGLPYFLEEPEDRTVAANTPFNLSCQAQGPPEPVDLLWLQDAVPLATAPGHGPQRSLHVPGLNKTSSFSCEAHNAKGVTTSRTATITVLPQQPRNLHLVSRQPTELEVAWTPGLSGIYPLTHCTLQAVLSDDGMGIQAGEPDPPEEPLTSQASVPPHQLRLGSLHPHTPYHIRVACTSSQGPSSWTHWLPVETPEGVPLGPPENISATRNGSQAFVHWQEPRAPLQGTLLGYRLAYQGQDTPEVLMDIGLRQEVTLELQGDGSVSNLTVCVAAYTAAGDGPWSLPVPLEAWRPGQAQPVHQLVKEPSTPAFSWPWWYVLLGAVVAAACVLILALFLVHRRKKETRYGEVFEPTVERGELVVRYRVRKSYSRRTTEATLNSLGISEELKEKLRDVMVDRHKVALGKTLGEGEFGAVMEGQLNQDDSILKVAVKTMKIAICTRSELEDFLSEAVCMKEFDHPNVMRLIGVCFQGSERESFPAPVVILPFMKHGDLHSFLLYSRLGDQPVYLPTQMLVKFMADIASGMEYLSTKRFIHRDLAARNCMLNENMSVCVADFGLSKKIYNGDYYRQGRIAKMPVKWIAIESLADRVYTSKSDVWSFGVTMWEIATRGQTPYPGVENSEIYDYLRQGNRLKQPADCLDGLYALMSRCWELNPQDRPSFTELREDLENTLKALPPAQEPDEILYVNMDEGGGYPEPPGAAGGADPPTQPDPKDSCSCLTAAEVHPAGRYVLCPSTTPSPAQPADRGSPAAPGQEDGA
In short: (§1)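 Recombinant human kinase preincubated 1 h at RT with compound, then reacted 2 h at RT with 800 nM biotin-TK substrate and 700 μM ATP (final; 5 nM AXL, 1 nM TYRO3 or MER) in HEPES pH 7.4, MgCl2, BSA, DTT, 1% DMSO. HTRF 665/620 ratio read; percent activity versus DMSO and pre-quenched controls.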

[2] = target: T2, human TYRO3 (Homo sapiens, UniProt Q06418); test: HTRF KinEASE-TK biochemical potency assay, TYRO3; settings: 1 nM TYRO3, 700 μM ATP, 800 nM TK Substrate-biotin
T2 construct: purchased Invitrogen
T2 sequence (Q06418 41-890): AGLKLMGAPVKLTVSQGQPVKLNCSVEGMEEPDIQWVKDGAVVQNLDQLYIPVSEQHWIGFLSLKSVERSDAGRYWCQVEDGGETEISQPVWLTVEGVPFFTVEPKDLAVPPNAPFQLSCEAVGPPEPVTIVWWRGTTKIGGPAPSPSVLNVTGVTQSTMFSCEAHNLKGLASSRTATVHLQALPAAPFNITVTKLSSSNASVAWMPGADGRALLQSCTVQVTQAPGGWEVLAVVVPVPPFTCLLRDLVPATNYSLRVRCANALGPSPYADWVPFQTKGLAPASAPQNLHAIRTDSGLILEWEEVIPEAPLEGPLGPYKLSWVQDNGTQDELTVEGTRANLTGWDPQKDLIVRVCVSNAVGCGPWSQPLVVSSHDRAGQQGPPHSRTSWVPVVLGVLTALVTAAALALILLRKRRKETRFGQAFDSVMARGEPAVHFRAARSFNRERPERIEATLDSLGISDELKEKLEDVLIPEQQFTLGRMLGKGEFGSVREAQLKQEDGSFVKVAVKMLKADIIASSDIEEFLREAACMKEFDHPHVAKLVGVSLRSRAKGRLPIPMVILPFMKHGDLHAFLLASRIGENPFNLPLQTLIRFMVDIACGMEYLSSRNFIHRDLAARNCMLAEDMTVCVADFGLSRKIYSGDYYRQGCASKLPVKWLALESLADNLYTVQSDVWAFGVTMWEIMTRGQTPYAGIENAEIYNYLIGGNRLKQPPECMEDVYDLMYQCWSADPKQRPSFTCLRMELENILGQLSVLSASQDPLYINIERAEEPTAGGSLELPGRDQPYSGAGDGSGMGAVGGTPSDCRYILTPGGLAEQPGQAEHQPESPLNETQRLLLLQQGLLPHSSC
In short: as §1

IC50 [1] [nM] | IC50 [2] [nM] | Structure (SMILES)
< 100 | 100 to 1000 | O=C([C@H]1CCCN1)N1CCc2ccc(-c3cnc4[nH]nc(-c5ccc(S(=O)(=O)C6CC6)cc5)c4c3)cc2CC1 [Example 113, 7-{3-[4-(Cyclopropanesulfonyl)phenyl]-1H-pyrazolo[3,4-b]pyridin-5-yl}-3-[(2R)-pyrrolidine-2-carbonyl]-2,3,4,5-tetrahydro-1H-3-benzazepine]
< 100 | 100 to 1000 | COCCNCc1ccc(-c2n[nH]c3ncc(-c4ccc5c(c4)CCC(C)(N4CCC[C@H]4C)CC5)cc23)cc1 (stereo partly drawn) [Example 108, (2-Methoxyethyl)({[4-(5-{7-methyl-7-[(2R)-2-methylpyrrolidin-1-yl]-6,7,8,9-tetrahydro-5H-benzo[7]annulen-2-yl}-1H-pyrazolo[3,4-b]pyridin-3-yl)phenyl]methyl})amine]
< 100 | 100 to 1000 | C[C@H]1CCCN1C1CCc2ccc(-c3cnc4[nH]nc(-c5ccc(S(=O)(=O)C6CC6)cc5)c4c3)cc2CC1 (stereo partly drawn) [Example 24, 3-(4-(Cyclopropylsulfonyl)phenyl)-5-(7-((S)-2-methylpyrrolidin-1-yl)-6,7,8,9-tetrahydro-5H-benzo[7]annulen-2-yl)-1H-pyrazolo[3,4-b]pyridine]
< 100 | < 100 | Cc1cc(-c2n[nH]c3ncc(-c4ccc5c(c4)CCN(C4CC4)CC5)cc23)ccc1C(=O)N1CCNCC1 [Example 119, 3-Cyclopropyl-7-{3-[3-methyl-4-(piperazine-1-carbonyl)phenyl]-1H-pyrazolo[3,4-b]pyridin-5-yl}-2,3,4,5-tetrahydro-1H-3-benzazepine]
< 100 | 100 to 1000 | C[C@@H]1CCCN1C1(C)CCc2ccc(-c3cnc4[nH]nc(-c5cnc(C(C)(C)O)c(Cl)c5)c4c3)cc2CC1 (stereo partly drawn) [Example 98, 2-[3-Chloro-5-(5-{7-methyl-7-[(2R)-2-methylpyrrolidin-1-yl]-6,7,8,9-tetrahydro-5H-benzo[7]annulen-2-yl}-1H-pyrazolo[3,4-b]pyridin-3-yl)pyridin-2-yl]propan-2-ol]
< 100 | 100 to 1000 | CC(C)(O)c1ccc(-c2n[nH]c3ncc(-c4ccc5c(c4)CCC(N4CCC[C@@H]4CO)CC5)cc23)cc1Cl (stereo partly drawn) [Example 21, 2-[2-Chloro-4-(5-{7-[(2R)-2-(hydroxymethyl)pyrrolidin-1-yl]-6,7,8,9-tetrahydro-5H-benzo[7]annulen-2-yl}-1H-pyrazolo[3,4-b]pyridin-3-yl)phenyl]propan-2-ol]
